Test results as given in article PMC11277489, “Novel Piperazine Derivatives of Vindoline as Anticancer Agents” (International Journal of Molecular Sciences, 2024).

Experiments:
SF-295 = experiment: NCI60 one-dose screen (10 μM), CNS Cancer; assay type: cell-based; conditions: Homo sapiens; 10 μM; SF-295, CNS Cancer; read-out: Growth percent rate
U251 = experiment: NCI60 one-dose screen (10 μM), CNS Cancer; assay type: cell-based; conditions: Homo sapiens, U-251; 10 μM; U251, CNS Cancer; read-out: Growth percent rate
HCT-116 = experiment: NCI60 one-dose screen (10 μM), Colon Cancer; assay type: cell-based; conditions: Homo sapiens; 10 μM; HCT-116, Colon Cancer; read-out: Growth percent rate
NCI-H460 = experiment: NCI60 one-dose screen (10 μM), Non-small Cell Lung Cancer; assay type: cell-based; conditions: Homo sapiens; 10 μM; NCI-H460, Non-small Cell Lung Cancer; read-out: Growth percent rate
IGROV1 = experiment: NCI60 one-dose screen (10 μM), Ovarian Cancer; assay type: cell-based; conditions: Homo sapiens, IGROV-1; 10 μM; IGROV1, Ovarian Cancer; read-out: Growth percent rate
CAKI-1 = experiment: NCI60 one-dose screen (10 μM), Renal Cancer; assay type: cell-based; conditions: Homo sapiens; 10 μM; CAKI-1, Renal Cancer; read-out: Growth percent rate
MOLT-4 = experiment: NCI60 one-dose screen (10 μM), Leukemia; assay type: cell-based, human; conditions: Homo sapiens; 10 μM; MOLT-4, Leukemia; read-out: Growth percent rate
[1] = tested on: 60 human tumor cell lines (NCI60); experiment: NCI60 one-dose screen (10 μM), whole panel; assay type: cell-based; conditions: 10 μM; mean over 60 human cancer cell lines; read-out: Growth percent rate, Mean
OVCAR-4 = experiment: NCI60 one-dose screen (10 μM), Ovarian Cancer; assay type: cell-based; conditions: Homo sapiens; 10 μM; OVCAR-4, Ovarian Cancer; read-out: Growth percent rate
TK-10 = experiment: NCI60 one-dose screen (10 μM), Renal Cancer; assay type: cell-based; conditions: Homo sapiens; 10 μM; TK-10, Renal Cancer; read-out: Growth percent rate
SF-268 = experiment: NCI60 one-dose screen (10 μM), CNS Cancer; assay type: cell-based; conditions: Homo sapiens; 10 μM; SF-268, CNS Cancer; read-out: Growth percent rate
SN12C = experiment: NCI60 one-dose screen (10 μM), Renal Cancer; assay type: cell-based; conditions: Homo sapiens, 10 μM, Renal Cancer, read-out: Growth percent rate
SW-620 = experiment: NCI60 one-dose screen (10 μM), Colon Cancer; assay type: cell-based; conditions: Homo sapiens; 10 μM; SW-620, Colon Cancer; read-out: Growth percent rate
SK-MEL-28 = experiment: NCI60 one-dose screen (10 μM), Melanoma; assay type: cell-based; conditions: Homo sapiens; 10 μM; SK-MEL-28, Melanoma; read-out: Growth percent rate
HS 578T = experiment: NCI60 one-dose screen (10 μM), Breast Cancer; assay type: cell-based; conditions: Homo sapiens; 10 μM; HS 578T, Breast Cancer; read-out: Growth percent rate
786–0 = experiment: NCI60 one-dose screen (10 μM), Renal Cancer; assay type: cell-based; conditions: Homo sapiens; 10 μM; 786-0, Renal Cancer; read-out: Growth percent rate
HL-60(TB) = experiment: NCI60 one-dose screen (10 μM), Leukemia; assay type: cell-based; conditions: Homo sapiens; 10 μM; HL-60(TB), Leukemia; read-out: Growth percent rate
LOX IMVI = experiment: NCI60 one-dose screen (10 μM), Melanoma; assay type: cell-based, human; conditions: Homo sapiens; 10 μM; LOX IMVI, Melanoma; read-out: Growth percent rate
RPMI-8226 = experiment: NCI60 one-dose screen (10 μM), Leukemia; assay type: cell-based; conditions: Homo sapiens; 10 μM; RPMI-8226, Leukemia; read-out: Growth percent rate
NCI-H522 = experiment: NCI60 one-dose screen (10 μM), Non-small Cell Lung Cancer; assay type: cell-based; conditions: Homo sapiens; 10 μM; NCI-H522, Non-small Cell Lung Cancer; read-out: Growth percent rate
MALME-3M = experiment: NCI60 one-dose screen (10 μM), Melanoma; assay type: cell-based; conditions: Homo sapiens; 10 μM; MALME-3M, Melanoma; read-out: Growth percent rate
ACHN = experiment: NCI60 one-dose screen (10 μM), Renal Cancer; assay type: cell-based; conditions: Homo sapiens, 10 μM, Renal Cancer, read-out: Growth percent rate
UACC-257 = experiment: NCI60 one-dose screen (10 μM), Melanoma; assay type: cell-based; conditions: Homo sapiens; 10 μM; UACC-257, Melanoma; read-out: Growth percent rate
M14 = experiment: NCI60 one-dose screen (10 μM), Melanoma; assay type: cell-based; conditions: Homo sapiens; 10 μM; M14, Melanoma; read-out: Growth percent rate
RXF 393 = experiment: NCI60 one-dose screen (10 μM), Renal Cancer; assay type: cell-based, human; conditions: Homo sapiens; 10 μM; RXF 393, Renal Cancer; read-out: Growth percent rate
HT29 = experiment: NCI60 one-dose screen (10 μM), Colon Cancer; assay type: cell-based; conditions: Homo sapiens, HT-29; 10 μM; HT29, Colon Cancer; read-out: Growth percent rate
HOP-62 = experiment: NCI60 one-dose screen (10 μM), Non-small Cell Lung Cancer; assay type: cell-based; conditions: Homo sapiens; 10 μM; HOP-62, Non-small Cell Lung Cancer; read-out: Growth percent rate
COLO 205 = experiment: NCI60 one-dose screen (10 μM), Colon Cancer; assay type: cell-based, human; conditions: Homo sapiens; 10 μM; COLO 205, Colon Cancer; read-out: Growth percent rate
NCI-H23 = experiment: NCI60 one-dose screen (10 μM), Non-small Cell Lung Cancer; assay type: cell-based; conditions: Homo sapiens; 10 μM; NCI-H23, Non-small Cell Lung Cancer; read-out: Growth percent rate
HCT-15 = experiment: NCI60 one-dose screen (10 μM), Colon Cancer; assay type: cell-based; conditions: Homo sapiens; 10 μM; HCT-15, Colon Cancer; read-out: Growth percent rate
A549/ATCC = experiment: NCI60 one-dose screen (10 μM), Non-small Cell Lung Cancer; assay type: cell-based; conditions: Homo sapiens; 10 μM; A549/ATCC, Non-small Cell Lung Cancer; read-out: Growth percent rate
EKVX = experiment: as above; assay type: cell-based; conditions: Homo sapiens, 10 μM, Non-small Cell Lung Cancer, read-out: Growth percent rate
MDA-MB-435 = experiment: NCI60 one-dose screen (10 μM), Melanoma; assay type: cell-based; conditions: Homo sapiens; 10 μM; MDA-MB-435, Melanoma; read-out: Growth percent rate
SNB-19 = experiment: NCI60 one-dose screen (10 μM), CNS Cancer; assay type: cell-based; conditions: Homo sapiens; 10 μM; SNB-19, CNS Cancer; read-out: Growth percent rate
K-562 = experiment: NCI60 one-dose screen (10 μM), Leukemia; assay type: cell-based; conditions: Homo sapiens, K562; 10 μM; K-562, Leukemia; read-out: Growth percent rate
OVCAR-8 = experiment: NCI60 one-dose screen (10 μM), Ovarian Cancer; assay type: cell-based; conditions: Homo sapiens; 10 μM; OVCAR-8, Ovarian Cancer; read-out: Growth percent rate
SK-MEL-5 = experiment: NCI60 one-dose screen (10 μM), Melanoma; assay type: cell-based, human; conditions: Homo sapiens; 10 μM; SK-MEL-5, Melanoma; read-out: Growth percent rate
NCI-H322M = experiment: NCI60 one-dose screen (10 μM), Non-small Cell Lung Cancer; assay type: cell-based; conditions: Homo sapiens, 10 μM, Non-small Cell Lung Cancer, read-out: Growth percent rate
A498 = experiment: NCI60 one-dose screen (10 μM), Renal Cancer; assay type: cell-based; conditions: Homo sapiens; 10 μM; A498, Renal Cancer; read-out: Growth percent rate
HCC-2998 = experiment: NCI60 one-dose screen (10 μM), Colon Cancer; assay type: cell-based; conditions: Homo sapiens; 10 μM; HCC-2998, Colon Cancer; read-out: Growth percent rate
SF-539 = experiment: NCI60 one-dose screen (10 μM), CNS Cancer; assay type: cell-based, human; conditions: Homo sapiens; 10 μM; SF-539, CNS Cancer; read-out: Growth percent rate
MCF7 = experiment: NCI60 one-dose screen (10 μM), Breast Cancer; assay type: cell-based; conditions: Homo sapiens; 10 μM; MCF7, Breast Cancer; read-out: Growth percent rate

## CC[C@]12C=CCN3CC[C@@]4(c5ccc(OC)cc5N(C)[C@H]4[C@@](O)(C(=O)OC)[C@@H]1OC(=O)CCC(=O)N1CCN(Cc4ccc(C(F)(F)F)cc4)CC1)[C@@H]32 [Compound 29]
SF-295
  activity at 10 µM: 7.76%
U251
  activity at 10 µM: 19.1%
HCT-116
  activity at 10 µM: 7.59%
NCI-H460
  activity at 10 µM: -11.4%
IGROV1
  activity at 10 µM: -31.2%
CAKI-1
  activity at 10 µM: 6.02%
MOLT-4
  activity at 10 µM: -4.63%
[1]
  activity at 10 µM: -1.41%
OVCAR-4
  activity at 10 µM: 10.5%
TK-10
  activity at 10 µM: 45.7%
SF-268
  activity at 10 µM: 14.6%
SN12C
  activity at 10 µM: 14.8%
SW-620
  activity at 10 µM: 9.15%
SK-MEL-28
  activity at 10 µM: 7.72%
HS 578T
  activity at 10 µM: 0.42%
786–0
  activity at 10 µM: 11.9%
HL-60(TB)
  activity at 10 µM: -58.2%
LOX IMVI
  activity at 10 µM: -7.07%
RPMI-8226
  activity at 10 µM: -14.2%
NCI-H522
  activity at 10 µM: 28.2%
MALME-3M
  activity at 10 µM: -26.5%
ACHN
  activity at 10 µM: 3.7%
UACC-257
  activity at 10 µM: 22.6%
M14
  activity at 10 µM: -20.3%
RXF 393
  activity at 10 µM: 10.2%
HT29
  activity at 10 µM: -10%
HOP-62
  activity at 10 µM: 22%
COLO 205
  activity at 10 µM: -91%
NCI-H23
  activity at 10 µM: 29.4%
HCT-15
  activity at 10 µM: 15%
A549/ATCC
  activity at 10 µM: 25.3%
EKVX
  activity at 10 µM: 25.4%
MDA-MB-435
  activity at 10 µM: 3.59%
SNB-19
  activity at 10 µM: 20.1%
K-562
  activity at 10 µM: -12.5%
OVCAR-8
  activity at 10 µM: 23.4%
SK-MEL-5
  activity at 10 µM: -90.9%
NCI-H322M
  activity at 10 µM: 35.4%
A498
  activity at 10 µM: 20.1%
HCC-2998
  activity at 10 µM: -52.6%
SF-539
  activity at 10 µM: 11.7%
MCF7
  activity at 10 µM: 10.9%

## CC[C@]12C=CCN3CC[C@@]4(c5ccc(OC)cc5N(C)[C@H]4[C@@](O)(C(=O)OC)[C@@H]1OC(=O)CCC(=O)N1CCN(Cc4ccc(F)cc4)CC1)[C@@H]32 [Compound 30]
SF-295
  activity at 10 µM: 67.9%
U251
  activity at 10 µM: 71.6%
HCT-116
  activity at 10 µM: 67.8%
NCI-H460
  activity at 10 µM: 83.4%
IGROV1
  activity at 10 µM: 68.4%
CAKI-1
  activity at 10 µM: 28.1%
MOLT-4
  activity at 10 µM: 59.4%
[1]
  activity at 10 µM: 71.4%
OVCAR-4
  activity at 10 µM: 56.4%
TK-10
  activity at 10 µM: 60.6%
SF-268
  activity at 10 µM: 50.8%
SN12C
  activity at 10 µM: 71.2%
SW-620
  activity at 10 µM: 102%
SK-MEL-28
  activity at 10 µM: 104%
HS 578T
  activity at 10 µM: 78.5%
786–0
  activity at 10 µM: 84.2%
HL-60(TB)
  activity at 10 µM: 82.2%
LOX IMVI
  activity at 10 µM: 71.8%
RPMI-8226
  activity at 10 µM: 46.3%
NCI-H522
  activity at 10 µM: 59.7%
MALME-3M
  activity at 10 µM: 93.3%
ACHN
  activity at 10 µM: 71.3%
UACC-257
  activity at 10 µM: 86%
M14
  activity at 10 µM: 61%
RXF 393
  activity at 10 µM: 60.1%
HT29
  activity at 10 µM: 60.5%
HOP-62
  activity at 10 µM: 88.4%
COLO 205
  activity at 10 µM: 66.7%
NCI-H23
  activity at 10 µM: 83.4%
HCT-15
  activity at 10 µM: 79.5%
A549/ATCC
  activity at 10 µM: 55.4%
EKVX
  activity at 10 µM: 60.2%
MDA-MB-435
  activity at 10 µM: 85.7%
SNB-19
  activity at 10 µM: 69.5%
K-562
  activity at 10 µM: 65.2%
OVCAR-8
  activity at 10 µM: 73.7%
SK-MEL-5
  activity at 10 µM: 62.6%
NCI-H322M
  activity at 10 µM: 97.2%
A498
  activity at 10 µM: 110%
HCC-2998
  activity at 10 µM: 85.3%
SF-539
  activity at 10 µM: 78.7%
MCF7
  activity at 10 µM: 62.2%
